The values below come from patent EP3222712A1, “ALCOHOL DEHYDROGENASE FROM PICHIA PASTORIS AND USE THEREOF” (priority 2016, dated 2017).

Marks after values point to notes of the source that are not given here. Some results are limits rather than exact numbers.

The test system of data set [1] is alcohol dehydrogenase from Pichia pastoris (PPADH). The data set is described as follows: biotransformation by purified PPADH with GDH co-factor regeneration, gas chromatography. Type of data set: biochemical. Conditions: 2 hours reaction time.
The target in data set [2] is alcohol dehydrogenase from Pichia pastoris (PPADH) (Komagataella phaffii, UniProt C4R4L0). The data set is described as follows: kinetic parameters of purified PPADH by photometry. Type of data set: biochemical, Pichia pastoris GS 115. The method, then: (§1) In order to determine the kinetic parameters of the recombinant PPADH, purified enzyme was manufactured as described in example 4b). Afterwards the described test for reductive activity was used. All parameters such as 100 mM tris HCl buffer (pH 7), 0.2 mM NADPH, and 10 µl enzyme (purified PPADH) were kept constant, except that concentration of substrate and concentration of co-factor were varied. The kinetic parameters were calculated using the software GraphPad Prism5 based on a non-linear ,fitting"-algorithm. Table 4: kinetic parameters of purified PPADH regarding benzaldehyde, racemic CF3-ketone as substrates and the co-factor NADPH determined by photometry

Substrate in data set [3]: CC(=O)CC(O)(c1ccccc1)C(F)(F)F
Description: kinetic parameters of purified PPADH by photometry. Type of data set: biochemical, Pichia pastoris GS 115. As for the experimental part: as §1

Substrate in data set [4]: O=Cc1ccccc1
Description: kinetic parameters of purified PPADH by photometry. Type of data set: biochemical, Pichia pastoris GS 115. The note with it: other: purified PPADH, tris HCl pH 7, non-linear fitting. The method, then:
as §1

[5] abbreviates: acetophenone derivatives, related to the alcohol formed.
Setting [6] is: other: purified PPADH, tris HCl pH 7, non-linear fitting.

In general, kcat refers to the maximal rate divided by the concentration of active sites. What is called Km is the concentration of substrate that gives half-maximal velocity. A word on the kcat/Km: it is the second-order rate constant that governs catalysis at low substrate concentration.

Regarding `O=C(c1ccccc1)C(F)(F)F` [2,2,2-Trifluoroacetophenone], the level of turnover entry in data set [1] (acetophenone derivatives) is reported as “+++ (+++=20-55%)”. Also, the turnover in data set [1] (setting [5]) was determined as 24.2%.

Turning to `O=C(CO)c1ccccc1` [2-Hydroxyacetophenone], the level of turnover result in data set [1] (acetophenone derivatives) was “+ (+=1-5%)”. This molecule also returned a turnover in data set [1] (setting [5]) of less than 5%.

Turning to `COCC(=O)c1ccccc1` [2-Methoxyacetophenone], the level of turnover entry in data set [1] (acetophenone derivatives) was “- (-=0-1%)”. In data set [1] (setting [5]), this molecule returned a turnover of less than 1%.

Take `O=C(c1ccc(Cl)cc1)C(F)(F)F` [4'-Chloro-2,2,2-trifluoro acetophenone]: the level of turnover result in data set [1] (acetophenone derivatives) is listed as “++ (++=5-20%)”. Besides, the turnover in data set [1] (setting [5]) is listed as 12.4%.

Take `NC(=O)C1=CN([C@@H]2O[C@H](COP(=O)(O)OP(=O)(O)OC[C@H]3O[C@@H](n4cnc5c(N)ncnc54)[C@H](OP(=O)(O)O)[C@@H]3O)[C@@H](O)[C@H]2O)C=CC1` [NADPH]: in data set [2] (tris HCl pH 7), the Vmax is recorded as 94.2 U/mg and the kcat is 19.5 s⁻¹. Also, in data set [2] (tris HCl pH 7, non-linear fitting), the Km turned out to be 48.3 µM.

On to `CC(=O)CC(O)(c1ccc(F)cc1)C(F)(F)F` (stereo not drawn) [Nod363 F4], for which, in data set [1] (CF3-ketone derivatives), the level of turnover entry is recorded as “+++++ (+++++ = 75 - 100 %)” and the turnover result is recorded as “quant”.

As for `CC(=O)CC(O)(c1ccc(C)cc1)C(F)(F)F` (stereo not drawn) [Nod364 F3-Enon], in data set [1] (CF3-ketone derivatives), the level of turnover result is reported as “+++++ (+++++ = 75 - 100 %)” and the turnover entry is “quant”.

Turning to `COc1ccc(C(O)(CC(C)=O)C(F)(F)F)cc1` (stereo not drawn) [Nod365 F6], in data set [1] (CF3-ketone derivatives), the level of turnover entry was “+++++ (+++++ = 75 - 100 %)” and the turnover result is given as “quant”.

As for `COc1ccccc1[C@@](O)(CC(C)=O)C(F)(F)F` [Nod-3d], the level of turnover result in data set [1] (CF3-ketone derivatives) is given as “+++++ (+++++ = 75 - 100 %)”. Moreover, the turnover in data set [1] (CF3-ketone derivatives, alcohol formed related to the reduction of (S)-ketone) is 75.8%.

On to `CC(=O)c1ccccc1` [acetophenone], for which, in data set [1] (acetophenone derivatives), the level of turnover entry was “++ (++=5-20%)”. The turnover in data set [1] (setting [5]) turned out to be 7.8%.

B1: alcohol dehydrogenase from Pichia pastoris (PPADH) (Komagataella phaffii GS115) (protein)
chain: MVSKVLLTGASGYIAQHITNELLSHGFKVIGTVRRQEQADQLHKQFSEESSVLQKDPSLLTYVLVPDIGASDAFDEVLKSTPDITYVLHTASPFIFNDDRALEDVYLKPAVEGTRNILSAIKKFANDSVKNVVVTSSFAAILNADKFEDKSFIHTEKVWNNNTWDQTKSGDRGVAYIVSKKEAEKAAWDFVEKEKPNFKLTTVNPPYVFGPQKFDASAKKESLNTSAEIVGSLLHTKYPSDDKLFDDPLNLSVDVRDVALYHVLPLLNADLASRRLLVVQSKFSAQRILNIINENFPELKGKIAVGKPEETARVEAIKGPEYNNSVTVGLTGVDPIPLEKTVVDSVKQILRANK
For B1, in data set [3] (other: corrected for 50% (S)-enantiomer in the racemic substrate, pH 7.0), the Km was 899 µM. Further, in data set [3] (setting [6]), the Km is recorded as 1797.0* µM, the Vmax is recorded as 46.3 U/mg, the kcat was 6.4 s⁻¹ and the kcat/Km was 3.6* s^-1mM^-1. Also, in data set [4], the Km is listed as 3034.0 µM, the Vmax is listed as 98.5 U/mg, the kcat amounted to 25.1 s⁻¹ and the kcat/Km turned out to be 8300 M⁻¹ s⁻¹.
